From paper PMC4015961, “New colorimetric screening assays for the directed evolution of fungal laccases to improve the conversion of plant biomass” (BMC Biotechnology, 2013) come the findings set out here.

Like-named read-outs stand apart in the source and are kept apart here.

The target of assay [1] is T1, R2 LRPL (Thermothelomyces thermophilus, UniProt G2QG31).
T1 construct: gene lcc1; secreted by S. cerevisiae, crude supernatant
In words: endpoint absorbance increase at […] nm. It counts as biochemical. The following applies: 2 mM acetosyringone; tartrate pH 4.0; yeast supernatant.

The subject of assay [2] is T2, Trametes villosa laccase (TvL).
T2 construct: gene LCC1
The note with it: sodium tartrate pH 4.0; crude commercial enzyme.

In assay [3] the test system is T3, Trametes villosa laccase (TvL).
T3 construct: gene LCC1; crude commercial laccase preparation, Novozymes
As to the kind of experiment: absorbance increase at […] nm. It counts as biochemical. The following applies: sodium tartrate pH 4.0; crude commercial enzyme; assigned by order of preceding sentence and Figure 2A-C.

For assay [4] the test system is unchanged. As to the kind of experiment: absorbance increase at […] nm. It counts as biochemical. The note with it: sodium tartrate pH 4.0; crude commercial enzyme.
Assay [5] concerns the target T1, R2 LRPL. As to the kind of experiment: endpoint absorbance increase at […] nm. The note with it: 250 μM sinapic acid; tartrate pH 4.0; yeast supernatant. It counts as biochemical.

T1 sequence (G2QG31 entry or part of it): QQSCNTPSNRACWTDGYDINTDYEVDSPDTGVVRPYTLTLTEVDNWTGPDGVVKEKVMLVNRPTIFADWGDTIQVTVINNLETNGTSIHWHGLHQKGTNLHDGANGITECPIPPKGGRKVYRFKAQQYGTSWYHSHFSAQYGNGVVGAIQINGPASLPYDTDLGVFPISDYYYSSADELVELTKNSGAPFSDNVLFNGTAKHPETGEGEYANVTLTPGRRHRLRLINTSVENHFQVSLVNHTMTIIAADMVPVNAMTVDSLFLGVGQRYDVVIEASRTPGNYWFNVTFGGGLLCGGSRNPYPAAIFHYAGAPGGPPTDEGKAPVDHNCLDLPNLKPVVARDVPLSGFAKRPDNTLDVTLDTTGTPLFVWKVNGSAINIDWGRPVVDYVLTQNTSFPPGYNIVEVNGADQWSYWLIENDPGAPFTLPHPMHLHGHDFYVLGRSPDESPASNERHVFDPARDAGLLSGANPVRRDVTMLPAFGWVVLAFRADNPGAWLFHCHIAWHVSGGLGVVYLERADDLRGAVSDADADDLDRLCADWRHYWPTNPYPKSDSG

As to `COc1cc(C(C)=O)cc(OC)c1O` [acetosyringone, 3′,5′-dimethoxy-4′-hydroxyacetophenone], at R2 LRPL [1], the “endpoint absorbance increase at 520 nm” value was “colored responses were linear (absorbance increased with increasing volumes of supernatant) with both laccases”. Further, the Km in assay [2] worked out at 93 µM. Consider `COc1cc(C=O)cc(OC)c1O` [syringaldehyde, 3,5-dimethoxy-4-hydroxybenzaldehyde], for which, in assay [3], the Km was determined as 120 µM. For `COc1cc(/C=C/C(=O)O)cc(OC)c1O` [sinapic acid], in assay [4], the Km worked out at 85 µM. Also, the “endpoint absorbance increase at 512 nm” value at R2 LRPL [5] is given as “colored responses were linear (absorbance increased with increasing volumes of supernatant) with both laccases”.
